From paper PMC7070709, “Design, Synthesis, and In Vitro Evaluation of Hydroxybenzimidazole-Donepezil Analogues as Multitarget-Directed Ligands for the Treatment of Alzheimer’s Disease” (Molecules, 2020)
Like-named read-outs stand apart in the source and are kept apart here.

What was measured:
[1] = cited from earlier work
Aβ1–42 with Cu(II) = Aβ1–42 with Cu(II) (Homo sapiens, UniProt P05067); assay: Inhibition of Cu-induced Aβ1–42 aggregation (thioflavin T fluorescence); type: biochemical; details: copper 40 µM, Aβ1–42 40 μM, 24 h, 37 °C; for inhibition at 40 µM: inhibitor 40 µM
Chain of Aβ1–42 with Cu(II) (P05067 672-713): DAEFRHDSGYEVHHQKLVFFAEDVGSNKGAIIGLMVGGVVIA
Method: (§1) The anti-amyloidogenic capacity of the compounds was also evaluated in vitro, in the absence and presence of Cu(II), based on the measurement of the fluorescence emission of Thioflavin T (ThT), a stain known by its Aβ fibril binding capacity. This binding interaction can be analyzed by fluorimetry, since the presence of ThT-fibrils increases the absorbance and the emission of the ThT dye, and it also induces red shifts on the absorbance (from 385 to 446 nm) and emission peaks (from 445 to 485 nm). All the measurements were performed after incubation (24 h, 37 °C) of the self-mediated and Cu^2+-induced Aβ aggregates in the presence/absence of the compounds under evaluation.
(§2) Herein, due to solubility problems of some compounds in the phosphate buffer (0.215 M, pH 8.0) of the working medium, the assays were carried out in the presence of 40 μM concentration of inhibitor and 20 μM in the case of compound 4, instead of 80 μM as previously reported. […] The activity dependence on ligand structural features may be mainly explained by the different ability for intercalation into the fibrils, as already assumed for other inhibitors. […] The data obtained for compounds 6 and 7 indicate that the presence of R1 = F, -NO2 substituents in the BIM have some small positive effect on the inhibition of Aβ aggregation.
(§3) The Aβ peptide was treated with 1,1,1,3,3,3-hexafluoropropan-2-ol (HFIP) and dissolved in a CH3CN/Na2CO3 (300 μM)/NaOH (250 μM) (48.3:48.3:4.3, v/v/v) mixture in order to have a stable stock solution, avoiding self-aggregation of Aβ1–42. Then, the prepared 500 μM solution was diluted at 40 μM in phosphate buffer (0.215 M, pH 8.0).
(§4) The solutions of the tested compounds were prepared in MeOH (1 mg/mL), being further diluted in phosphate buffer to a concentration of 480 μM. For copper-induced aggregation studies, a solution of CuCl2 240 μM was prepared from a stock standard solution (0.015 M). To perform the assays for the Aβ1–42 aggregation inhibition, a reported method, based on the fluorescence emission of thioflavin T (ThT), was followed. Aβ1–42 (40 μM) was incubated at 37 °C, for 24 h with or without Cu(II) (40 μM) in a phosphate buffer in presence or absence of the single ligand (40 μM and 20 μM for compound 4). Then, the samples were added to a 96-well plate with […] of 5 μM ThT in 50 mM glycine-NaOH (pH 8.5) buffer. Blank samples were prepared without the peptide for each concentration. The ThT fluorescence was measured at 446 nm (excitation) and 485 nm (emission). The inhibition percentage of aggregation was calculated by Equation (2), in which IFi and IF0 corresponded to the fluorescence intensities, in the presence and in the absence of the tested compound, subtracted of the fluorescence intensities due to the respective blanks.
(§5) The reported values were obtained as the mean ± SEM of duplicate of three different experiments.

[2] = target: T1, AChE (type VI-S, from electric eel) (Electrophorus electricus, UniProt O42275); assay: AChE inhibition, adaptation of Ellman's method; type: biochemical; details: means of three independent experiments ± SD, read-out: TcAChE Inhibition IC50
T1 construct: purchased type VI-S
T1 sequence (O42275 24-633): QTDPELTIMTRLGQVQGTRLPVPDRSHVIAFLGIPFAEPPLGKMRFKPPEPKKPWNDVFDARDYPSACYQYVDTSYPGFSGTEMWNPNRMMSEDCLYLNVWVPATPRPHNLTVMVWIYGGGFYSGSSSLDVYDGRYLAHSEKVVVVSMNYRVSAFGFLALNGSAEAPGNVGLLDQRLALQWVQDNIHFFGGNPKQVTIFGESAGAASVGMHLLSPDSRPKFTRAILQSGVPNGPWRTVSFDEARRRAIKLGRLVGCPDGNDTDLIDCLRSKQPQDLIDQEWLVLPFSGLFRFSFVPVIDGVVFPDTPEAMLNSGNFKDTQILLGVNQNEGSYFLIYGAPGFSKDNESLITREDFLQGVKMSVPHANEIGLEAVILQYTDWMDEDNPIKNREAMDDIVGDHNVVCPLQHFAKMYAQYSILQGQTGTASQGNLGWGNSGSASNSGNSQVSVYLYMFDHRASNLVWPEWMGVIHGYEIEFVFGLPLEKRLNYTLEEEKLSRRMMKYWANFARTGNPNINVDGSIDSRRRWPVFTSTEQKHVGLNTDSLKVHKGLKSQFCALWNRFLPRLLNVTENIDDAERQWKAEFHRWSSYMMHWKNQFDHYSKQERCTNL
Method: The inhibition of AChE by the DNP-BIM hybrids herein studied was assayed by using a variation of Ellman´s test and the IC50 values obtained are included in Table 2. […]. An adaptation of the Ellman´s method, previously described, was used to measure the acetylcholinesterase inhibitory activity. The assay solution contained 374 µL of 4-(2-hydroxyethyl)-1-piperazineethanesulfonic acid (HEPES) buffer (50 mM, pH 8.0), 476 µL of 5,5’-dithiobis-(2-nitrobenzoic acid) (DTNB, 3 mM), a variable volume (10–50 µL) of the stock solution of each compound in methanol (1 mg/mL), 25 µL of AChE (type VI-S, from electric eel) stock solution, and the necessary amount of methanol to obtain 0.925 mL of sample mixture in a 1 mL cuvette. The samples were incubated for 15 min and then 75 µL of acetylthiocholine iodide (AChI) solution (16 mM) was added. The reaction was monitored for 5 min at 405 nm. Assays were run with a blank containing all the components except AChE, which was replaced by HEPES buffer. The rates of the reaction were calculated as well as the enzyme activity. A control reaction was carried out using methanol as a sample solution and it was considered as 100% activity.
The inhibition curves were obtained by plotting the percentage of enzymatic inhibition versus inhibitor concentration and a calibration curve was got from which the linear regression parameters were obtained.

Aβ1–42 = Aβ1–42 (Homo sapiens, UniProt P05067); assay: Inhibition of self-mediated Aβ1–42 aggregation (thioflavin T fluorescence); type: biochemical; details: Aβ1–42 40 μM, 24 h, 37 °C, read-out: Aβ1–42 Aggregation Inhibition, Self-Induced; for inhibition at 40 µM: inhibitor 40 µM
Chain of Aβ1–42 (P05067 672-713): as the sequence (P05067 672-713) above
Method: as §1, §2, §3, §4, §5

[3] = Zn(II) chelation by potentiometry; type: physicochemical; details: for pH at which metal complexation starts, Zn(II): formation of MHL species, CL = 6.7 × 10^−4 M, 1:2 M(II)/L; for pZn (pM = −log[M]): pH 7.4, CL/CM = 10, CM = 10^−6 M
From the text: (§6) The metal chelating ability of hybrids 7 and 12, due to the BIM bidentate unity with (N,O) coordination mode, was studied by potentiometry. Figure 3A,B show a change in the deprotonation profile of the ligand titration curves due to the presence of the metal ions. In fact, the curves for the Cu(II)/L systems lie well below that of the ligand, while for the Zn(II)/L systems stay under for a > −1 (compound 7) or a > 0 (compound 12), thus supporting the formation of 1:1 and 1:2 M/L ratio complexes with the deprotonated and mono-protonated forms of the ligand and with relative metal dependent stability order (Cu > Zn). Table 1 contains the equilibrium models obtained from the fitting analysis of the potentiometric curves by program Hyperquad. In these equilibrium models, which the coordination core of the compounds integrates the bidentate (N,O) BIM moiety, MHL and MH2L2 correspond to species with the ligand containing one protonated nitrogen atom at the piperazine moiety, ML and ML2 correspond to complexes involving the completely deprotonated form of the ligand while MH-1L2 are mixed ligand-hydroxo metal complexes.
(§7) Solutions: the aqueous copper (CuCl2, 0.015 M) and zinc (ZnCl2, 0.0156 M) stock solutions for potentiometric equilibrium studies were prepared from 1000 ppm standards (Titrisol) and their metal content was evaluated by atomic absorption. The titrant solution (0.1 M KOH) was obtained from a carbonate-free commercial concentrate (Titrisol) and standardized by potentiometric titration with potassium hydrogen phthalate. The titrant solution was discarded whenever the percentage of carbonate (Gran’s method) was about 0.5% of the total amount of base.
(§8) Measurements: compounds 7 and 12 were titrated in 50% (w/w) DMSO/H2O medium, at T = 25.0 ± 0.1 °C and ionic strength (I) 0.1 M KCl, using 0.1 M KOH as titrant. Both glass and Ag/AgCl reference electrodes were previously conditioned in DMSO/H2O mixtures with increasing amounts of DMSO and the response of the glass electrode was controlled by strong acid–strong base (HCl/KOH) calibrations with the determination of the Nernst parameters by Gran’s method. […] All titrations were performed in duplicate and under the stated experimental conditions the pKw value (13.6) was determined and subsequently used in the computations. The stepwise protonation constant of the ligand, Ki = [HiL]/([Hi–1L][H]), and the overall metal–complex stability constants, βMmHhLl = [MmHhLl]/([M]^m[H]^h[L]^l), were calculated by fitting the potentiometric titration data with Hyperquad 2008 [26]. The metal hydrolysis constants were determined under the defined experimental conditions (I = 0.1 M KCl, 50% w/w DMSO/H2O, T = 25.0 ± 0.1 °C) and the following values of stability constants were included in the fitting of experimental data towards the equilibrium models related to the Cu^2+/L and Zn^2+/L systems: log βCu2H−2 = −9.99; log βZnH−2 = −14.79, log βZnH−3 = −23.48. Species distribution curves were plotted with the Hyss program.

[4] = Cu(II) chelation by potentiometry; type: physicochemical; details: for pH at which metal complexation starts, Cu(II): formation of MHL species, CL = 6.7 × 10^−4 M, 1:2 M(II)/L; for pCu (pM = −log[M]): pH 7.4, CL/CM = 10, CM = 10^−6 M; for Kd: pH 7.4, read-out: conditional dissociation constant (K´d) for the copper complex
From the text: as §6, §7, §8

[5] = global formation constant, 50% w/w DMSO/water, I = 0.1 M KCl, 25.0 °C

In the case of `O=[N+]([O-])c1ccc(O)cc1` [4-nitrophenol], the “log K (protonation constant)” value ([1]; standard group) is listed as 7.15.

`O=C(NCC1CCCN(Cc2ccccc2)C1)c1ccc2nc(-c3ccccc3O)[nH]c2c1` (stereo not drawn) [Compound 3, N-((1-Benzylpiperidin-3-yl)methyl)-2-(2-hydroxyphenyl)-1H-benzo[d]imidazole-6-carboxamide] showed an inhibition at 40 µM (Aβ1–42 with Cu(II)) of 81.8%, an IC50 [2] of 5 ± 0.5 µM and an inhibition at 40 µM (Aβ1–42) of 71.4%.

`O=C(NCC1CCCCN1Cc1ccccc1)c1ccc2nc(-c3ccccc3O)[nH]c2c1` (stereo not drawn) [Compound 4, N-((1-Benzylpiperidin-2-yl)methyl)-2-(2-hydroxyphenyl)-1H-benzo[d]imidazole-6-carboxamide] showed an inhibition at 20 µM (Aβ1–42 with Cu(II); inhibitor 20 µM) of 55.9%, an IC50 [2] of 14 ± 1 µM and an inhibition at 20 µM (Aβ1–42; inhibitor 20 µM) of 47.6%.

`O=C(NCC1CCN(Cc2ccccc2)CC1)c1ccc2[nH]c(-c3cc(F)ccc3O)nc2c1` [Compound 6, N-((1-Benzylpiperidin-4-yl)methyl)-2-(2-hydroxy-5-fluorophenyl)-1H-benzo[d]imidazole-5-carboxamide] gave an inhibition at 40 µM (Aβ1–42 with Cu(II)) of 61%, an IC50 [2] of 1.67 ± 0.05 µM and an inhibition at 40 µM (Aβ1–42) of 51.2%.

For `O=C(NCCN1CCN(Cc2ccccc2)CC1)c1ccc2[nH]c(-c3cc([N+](=O)[O-])ccc3O)nc2c1` [Compound 7, N-(2-(4-Benzylpiperazin-1-yl)ethyl)-2-(2-hydroxy-5-nitrophenyl)-1H-benzo[d]imidazole-5-carboxamide], the inhibition at 40 µM (Aβ1–42 with Cu(II)) was 71.4%, the IC50 [2] was 21 ± 3 µM and the “pH at which metal complexation starts, Zn(II)” value [3] was 3.5–4. The “log βZnmHhLl (101), ZnL” value [3, 5] was 4.98(8), the “log βZnmHhLl (102), ZnL2” value [3, 5] was 10.22(8) and the “log βZnmHhLl (111), ZnHL” value [3, 5] was 10.40(8). The “log βZnmHhLl (122), ZnH2L2” value [3, 5] was 21.92(7), the “pZn (pM = −log[M])” value [3] was 6.5 and the “pH at which metal complexation starts, Cu(II)” value [4] was “around 2”. The “log βCumHhLl (1–12), CuH-1L2” value [4, 5] was 7.30(9), the “log βCumHhLl (102), CuL2” value [4, 5] was 15.27(8) and the “log βCumHhLl (111), CuHL” value [4, 5] was 14.23(5). The “log βCumHhLl (122), CuH2L2” value [4, 5] was 26.90(7), the “pCu (pM = −log[M])” value [4] was 10.9 and the Kd [4] was 0.08 µM. The inhibition at 40 µM (Aβ1–42) was 57.6%.

Work on `O=C(NCCN1CCN(Cc2ccccc2)CC1)c1ccc2[nH]c(-c3cc(F)ccc3O)nc2c1` [Compound 8, N-(2-(4-Benzylpiperazin-1-yl)ethyl)-2-(2-hydroxy-5-fluorophenyl)-1H-benzo[d]imidazole-5-carboxamide] yielded an inhibition at 40 µM (Aβ1–42 with Cu(II)) of 55.2%, an IC50 [2] of 4.3 ± 0.3 µM and an inhibition at 40 µM (Aβ1–42) of 50.6%.

Molecule `O=C(NCCN1CCN(Cc2ccccc2[N+](=O)[O-])CC1)c1ccc2nc(-c3ccccc3O)[nH]c2c1` [Compound 11, 2-(2-Hydroxyphenyl)-N-(2-(4-(2-nitrobenzyl)piperazin-1-yl)ethyl)-1H-benzo[d]imidazole-6-carboxamide] has an inhibition at 40 µM (Aβ1–42 with Cu(II)) of 43.5%, an IC50 [2] of 20 ± 1 µM and an inhibition at 40 µM (Aβ1–42) of 22.7%.

With `O=C(NCCN1CCN(Cc2ccccn2)CC1)c1ccc2nc(-c3ccccc3O)[nH]c2c1` [Compound 12, 2-(2-Hydroxyphenyl)-N-(2-(4-(pyridin-2-ylmethyl)piperazin-1-yl)ethyl)-1H-benzo[d]imidazole-6-carboxamide] the inhibition at 40 µM (Aβ1–42 with Cu(II)) was 44.4%, the IC50 [2] was over 100 µM and the “pH at which metal complexation starts, Zn(II)” value [3] was 3.5–4. For the same molecule, the “log βZnmHhLl (1–12), ZnH-1L2” value [3, 5] was 2.07(7), the “log βZnmHhLl (101), ZnL” value [3, 5] was 6.26(5) and the “log βZnmHhLl (102), ZnL2” value [3, 5] was 10.54(5). The “log βZnmHhLl (111), ZnHL” value [3, 5] was 12.58(4), the “pZn (pM = −log[M])” value [3] was 6.3 and the “pH at which metal complexation starts, Cu(II)” value [4] was “around 2”. The “log βCumHhLl (1–12), CuH-1L2” value [4, 5] was 7.88(7), the “log βCumHhLl (101), CuL” value [4, 5] was 11.18(5) and the “log βCumHhLl (102), CuL2” value [4, 5] was 17.14(7). The “log βCumHhLl (111), CuHL” value [4, 5] was 16.26(3), the “pCu (pM = −log[M])” value [4] was 10.4 and the Kd [4] was 0.000365 µM. It also gave an inhibition at 40 µM (Aβ1–42) of 30.1%.

In the case of `c1c[nH]cn1` [imidazole], the “log K (protonation constant)” value ([1]; standard group) is given as 6.95.

In the case of `Oc1ccccc1` [phenol], the “log K (protonation constant)” value ([1]; standard group) is listed as 9.98.

In the case of `c1ccncc1` [pyridine], the “log K (protonation constant)” value ([1]; in water) is given as 5.24.
